Data published in PMC9739695, “Water-Soluble Salts Based on Benzofuroxan Derivatives—Synthesis and Biological Activity” (International Journal of Molecular Sciences, 2022).
Like-named read-outs stand apart in the source and are kept apart here.

How the values were obtained:
[1] = system: murine leukemia P388 in BDF1 mice; experiment: Antitumor activity in vivo, transplanted murine leukemia P388
Description: The study of the antitumor activity of compounds 4e and 4g was carried out using transplanted experimental murine tumor leukemia P388. In the experiment, concentrations from 1.25 to 10 mg/kg were used for 4e, and from 0.625 to 5 mg/kg for 4g. The concentrations used correspond to values from 1/8 MPD to MPD for the studied compounds.
Studies of antitumor activity were carried out on hybrid male mice BDF1 [DBA2×C57Bl6] weighing from 22 to 24 g. In the experiment, clinically healthy animals were used, which were kept in the same conditions with a 12-h light and free access to water and food. Each experimental group included six animals. Transplantation of mouse leukemia P388 was performed intraperitoneally with a concentration of 10^6 cells in 200μLof 0.9% NaCl solution per animal. Compounds 4e and 4g were dissolved in 0.9% NaCl solution and administered intraperitoneally once in the dose range 1.25–10 mg/kg and 0.625–5 mg/kg, respectively. The compounds were administered the next day after tumor cell transplantation. Control animals received 0.9% NaCl solution. The effectiveness of therapy was assessed by the increase in the average life span (ILS, %) of the animals.

[2] = system: glycolysis in SH-SY5Y cells; experiment: Glycolysis stress test (ECAR, Seahorse XF96e); format: cell-based, Human; conditions: 100 µM, ECAR
Description: Using the cell metabolism analyzer Agilent Seahorse XF96e Analyzer (Seahorse Bioscience, North Billerica, MA, USA), the rate of extracellular acidification of the medium (ECAR) in cells of tumor origin SH-SY5Y was evaluated as a glycolysis measure.
The ability of compounds to suppress anaerobic glycolysis was studied using the Agilent Seahorse XF96e Analyzer (Seahorse Bioscience, North Billerica, MA, USA) by the level of hydrogen proton production in the studied samples on cell lines of neuroblastoma SH-SY5Y using a glycolysis stress test [62]. The rate of extracellular acidification of the medium was measured in real time, which made it possible to assess the intensity of glycolysis in cells by fixing the three main parameters of the glycolytic function: basal glycolysis, glycolytic capacity, and glycolytic reserve.
SH-SY5Y cells in the exponential growth phase were seeded in a 96-well Seahorse cell culture microplate. The planting density of the cell culture was 2 × 10^4/well. […]
The test compounds were added from port A at a concentration of 100 μM. To determine the effect of test compounds on basal glycolysis of neoplastic cells, 10 mM glucose was added from port B. The maximum glycolytic capacity was assessed by injecting oligomycin at a concentration of 1 μM from port C. […]

sorghum seeds = experiment: Pre-sowing seed treatment, sowing qualities of sorghum seeds; format: in vivo; conditions: for germination energy: control 52.3; for laboratory germination: control 57
Description: (§1) When evaluating the effectiveness of treatment of wheat, alfalfa, barley, rice, and sorghum seeds as fungicidal and bactericidal agents with preparation compounds at concentrations of 10, 20, and 40 mmol, their effect on the suppression of seed infection was evaluated.
(§2) […] The sowing qualities were evaluated (germination energy for 3–4 days, laboratory germination for 7–8 days) according to GOST 12038-84 [60]. Sowing qualities of seeds were determined in wet chambers. According to the sample, 50 seeds were taken in 4-fold repetition.

BDF1 mice = experiment: Acute toxicity, single intraperitoneal administration; format: in vivo
Description: (§3) To determine LD50, a curve of increasing toxicity was built with increasing dose, based on which the following parameters were additionally determined: MTD, LD16, LD84 and LD100.
(§4) In the experiment, clinically healthy animals were used, which were kept in the same conditions with a 12-h light and free access to water and food. Each experimental group included six animals. […] Control animals received 0.9% NaCl solution. Animals were monitored continuously for 4 h on the first day after administration of the test compounds. […] Calculation of toxic doses was performed using probit analysis.

[3] = as above; format: in vivo; conditions: male, BDF1 [DBA2 × C57Bl6] hybrid, mouse, in vivo, ip, BDF1 mice, single intraperitoneal administration
Description: as §3, §4

wheat seeds = experiment: Pre-sowing seed treatment, sowing qualities of wheat seeds; format: in vivo; conditions: for germination energy: control 82; for laboratory germination: control 85.7
Description: as §1, §2

[4] = system: Hek 293 (human embryonic kidneys); experiment: Cell viability, MTT test, normal cell line; format: cell-based; conditions: read-out: IC50 (concentration causing 50% inhibition of cell population growth)
Description: In this work, the cytotoxic potential of the water-soluble salts based on benzofuroxan was determined by the effect of compounds on the survival of the cell tumor origin cultures (SH-SY5Y, Hep2, A549, HeLa) using the MTT test. To understand how the synthesized compounds can influence the healthy microenvironment in the body, the effect of substances on the viability of a normal Hek 293 cell culture was additionally evaluated.
Human cell cultures of tumor origin—SH-SY5Y (neuroblastoma), HeLa (cervical tumor), Hep-2 (larynx carcinoma), A549 (adenocarcinomic human alveolar basal epithelial cells)—and normal cell line Hek 293 (human embryonic kidneys), provided by the Laboratory of Tumor Cell Genetics of the Scientific Research Institute of Carcinogenesis, N.N. Blokhin National Medical Research Center of Oncology, as well as the Institute of Cytology of the Russian Academy of Sciences, were grown in a nutrient medium DMEM (PanEco, Moscow, Russia) and MEM (PanEco, Moscow, Russia), containing fetal bovine serum (10% by volume) (ThermoFisher Scientific, Paisley, UK), Glutamax (2 mM) (Gibco, Scotland, UK), and penicillin-streptomycin (1% by volume) (PanEco, Moscow, Russia). The cultivation was carried out at 37 °C in a humidified CO2 atmosphere (5%).
Cell viability was determined by MTT test. Cells were seeded in a 96-well plate in the amount of 1 × 10^4 cells/200µLof complete nutrient medium and cultured at 37 °C in CO2 (5%). After 24 h of incubation, various concentrations of test compounds in the range from 0.1 to 100 μM, were added to the cell cultures, and then the cells were cultured under the same conditions for 24 and 72 h. For each concentration, the experiment was carried out in triplicate.
All compounds were dissolved in DMSO, then diluted with the medium to the required concentration. […] The DMSO was also added to the control wells in a volume of 1%. After the incubation time, MTT (3-(4,5-dimethylthiazol-2-yl)-2,5-diphenyltetrazolium bromide, 5 mg/mL) was added to each well and plates were additionally incubated for 2 h (until the characteristic color appeared).
Using a plate analyzer (Cytation3, BioTech Instruments Inc., Winooski, VT, USA), the optical density was determined at 530 nm. The concentration value causing 50% inhibition of cell population growth (IC50) was determined from dose-dependent curves.

[5] = single intraperitoneal administration, doses given in mg/kg, probit analysis

In the case of CN(C)CCCNc1c([N+](=O)[O-])c(Cl)cc2c1no[n+]2[O-].Cl [4g, 6-chloro-4-(3-(dimethylammonio)propylamino)-5-nitrobenzo[c][1,2,5]oxadiazole 1-oxide chloride], the “increase in the average lifespan (ILS)” value ([1]; single i.p. injection, 5 mg/kg) is reported as 25%, the lifespan of animals ([1]; single i.p., doses from 1/8 MPD to MPD, control animals all die by day 11) is reported as “up to 16 days” and the “glycolytic parameters (basal glycolysis, glycolytic capacity, glycolytic reserve)” value [2] is reported as “reaching a minimum”. The germination energy (sorghum seeds; 10 mmol) was 36.6%, the laboratory germination (sorghum seeds; 10 mmol) was 50% and the “sowing qualities of seeds compared with control” value (sorghum seeds; 20 mmol) was “higher than in the control”. The germination energy (sorghum seeds; 20 mmol) was 61.9%, the laboratory germination (sorghum seeds; 20 mmol) was 71.4% and the “sowing qualities of seeds compared with control” value (sorghum seeds; 40 mmol) was “higher than in the control”. The germination energy (sorghum seeds; 40 mmol) was 57.2%, the laboratory germination (sorghum seeds; 40 mmol) was 80.9% and the “toxicity class from acute toxicity study” value (BDF1 mice; single i.p.) was “highly toxic”. For the same compound, the “Body Weight” value (BDF1 mice; single i.p. 5 mg/kg, 0 Day, control 21.55 ± 0.28) was 21.88 ± 0.45 g, the “Body Weight” value (BDF1 mice; single i.p. 5 mg/kg, 1 Day, control 21.43 ± 0.56) was 21.59 ± 0.55 g and the “Body Weight” value (BDF1 mice; single i.p. 5 mg/kg, 2 Days, control 21.67 ± 0.77) was 21.64 ± 0.71 g. The “Body Weight” value (BDF1 mice; single i.p. 5 mg/kg, 3 Days, control 21.99 ± 0.79) was 21.72 ± 0.79 g, the “Body Weight” value (BDF1 mice; single i.p. 5 mg/kg, 7 Days, control 22.80 ± 0.44) was 22.12 ± 0.75 g and the “Body Weight” value (BDF1 mice; single i.p. 5 mg/kg, 14 Days, control 23.96 ± 0.68) was 23.19 ± 1.21 g. The “Body Weight” value (BDF1 mice; single i.p. 10 mg/kg, 0 Day, control 21.55 ± 0.28) was 21.99 ± 0.21 g, the “Body Weight” value (BDF1 mice; single i.p. 10 mg/kg, 1 Day, control 21.43 ± 0.56) was 21.54 ± 0.41 g and the “Body Weight” value (BDF1 mice; single i.p. 10 mg/kg, 2 Days, control 21.67 ± 0.77) was 21.60 ± 0.52 g. The “Body Weight” value (BDF1 mice; single i.p. 10 mg/kg, 3 Days, control 21.99 ± 0.79) was 21.86 ± 0.66 g, the “Body Weight” value (BDF1 mice; single i.p. 10 mg/kg, 7 Days, control 22.80 ± 0.44) was 22.84 ± 1.06 g and the “Body Weight” value (BDF1 mice; single i.p. 10 mg/kg, 14 Days, control 23.96 ± 0.68) was 23.70 ± 1.12 g. The “Body Weight” value (BDF1 mice; single i.p. 15 mg/kg, 0 Day, control 21.55 ± 0.28) was 21.86 ± 0.57 g, the “Body Weight” value (BDF1 mice; single i.p. 15 mg/kg, 1 Day, control 21.43 ± 0.56) was 21.36 ± 2.51 g and the “Body Weight” value (BDF1 mice; single i.p. 15 mg/kg, 2 Days, control 21.67 ± 0.77) was 21.60 ± 2.43 g. For the same compound, the “Body Weight” value (BDF1 mice; single i.p. 15 mg/kg, 3 Days, control 21.99 ± 0.79) was 22.11 ± 3.03 g, the “Body Weight” value (BDF1 mice; single i.p. 15 mg/kg, 7 Days, control 22.80 ± 0.44) was 22.41 ± 2.74 g and the “Body Weight” value (BDF1 mice; single i.p. 15 mg/kg, 14 Days, control 23.96 ± 0.68) was 23.15 ± 2.14 g. For the same compound, the “Body Weight” value (BDF1 mice; single i.p. 20 mg/kg, 0 Day, control 21.55 ± 0.28) was 22.37 ± 0.80 g, the “Body Weight” value (BDF1 mice; single i.p. 20 mg/kg, 1 Day, control 21.43 ± 0.56) was 21.99 ± 3.09 g and the “Body Weight” value (BDF1 mice; single i.p. 20 mg/kg, 2 Days, control 21.67 ± 0.77) was 21.77 ± 3.79 g. For the same compound, the “Body Weight” value (BDF1 mice; single i.p. 20 mg/kg, 3 Days, control 21.99 ± 0.79) was 21.85 ± 3.18 g, the “Body Weight” value (BDF1 mice; single i.p. 20 mg/kg, 7 Days, control 22.80 ± 0.44) was 22.81 ± 3.89 g and the “Body Weight” value (BDF1 mice; single i.p. 20 mg/kg, 14 Days, control 23.96 ± 0.68) was 23.41 ± 3.01 g. For the same compound, the “Body Weight” value (BDF1 mice; single i.p. 25 mg/kg, 0 Day, control 21.55 ± 0.28) was 21.87 ± 0.74 g, the “time after administration at which death of animals began” value (BDF1 mice; single i.p., doses of 10–25 mg/kg) was 5 to 30 min and the LD100 (BDF1 mice; single intraperitoneal administration, doses given in mg/kg) was 25. It also gave an LD16 (BDF1 mice; [5]) of 9.4, an LD84 (BDF1 mice; [5]) of 20.3 and an MTD at 14 days ([3]; doses given in mg/kg) of 5 mg/kg. For the same compound, the LD50 at 14 days ([3]; probit analysis) was 13.8 ± 1.73 mg/kg, the germination energy (wheat seeds; 10 mmol) was 42.8% and the laboratory germination (wheat seeds; 10 mmol) was 47.6%. The germination energy (wheat seeds; 20 mmol) was 80.9%, the laboratory germination (wheat seeds; 20 mmol) was 90.4% and the germination energy (wheat seeds; 40 mmol) was 80.9%. For the same compound, the laboratory germination (wheat seeds; 40 mmol) was 80.9%, the IC50 ([4]; HEK293, 24 h) was 21.9 ± 0.39 µM and the IC50 ([4]; HEK293, 72 h) was 12 ± 1.12 µM.
